Results reported in PubChem BioAssay (NCI).
“And” between values parts separate entries of the source, which are not always exact repeats. Equal entries are not always repeated.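 Values below derive from 48-hour exposures of cells grown in 96-well plates, with endpoints linearly interpolated between the two concentrations bracketing the appropriate inhibition level. GI50 = concentration required for 50% inhibition of growth. TGI is the concentration that stops growth completely.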

Assays:
Assay in all cases: inhibition of tumour cell growth, NCI panel, 48 h
786-0 renal = system: 786-0 renal
A498 renal = system: A498 renal
A549 NSCLC = system: A549 NSCLC
ACHN renal = system: ACHN renal
BT-549 breast = system: BT-549 breast
CAKI-1 renal = system: CAKI-1 renal
CCRF-CEM leukemia = system: CCRF-CEM leukemia
COLO 205 colon = system: COLO 205 colon
DU-145 prostate = system: DU-145 prostate
EKVX NSCLC = system: EKVX NSCLC
HCC-2998 colon = system: HCC-2998 colon
HCT-116 colon = system: HCT-116 colon
HCT-15 colon = system: HCT-15 colon
HL-60(TB) leukemia = system: HL-60(TB) leukemia
HOP-62 NSCLC = system: HOP-62 NSCLC
HOP-92 NSCLC = system: HOP-92 NSCLC
HS 578T breast = system: HS 578T breast
HT29 colon = system: HT29 colon
IGROV1 ovarian = system: IGROV1 ovarian
K-562 leukemia = system: K-562 leukemia
KM12 colon = system: KM12 colon
LOX IMVI melanoma = system: LOX IMVI melanoma
M14 melanoma = system: M14 melanoma
MALME-3M melanoma = system: MALME-3M melanoma
MCF7 breast = system: MCF7 breast
MDA-MB-231 breast = system: MDA-MB-231 breast
MDA-MB-435 = system: MDA-MB-435
MOLT-4 leukemia = system: MOLT-4 leukemia
NCI-H226 lung = system: NCI-H226 lung
NCI-H23 lung = system: NCI-H23 lung
NCI-H460 lung = system: NCI-H460 lung
NCI-H522 lung = system: NCI-H522 lung
NCI/ADR-RES ovarian = system: NCI/ADR-RES ovarian
OVCAR-3 ovarian = system: OVCAR-3 ovarian
OVCAR-4 ovarian = system: OVCAR-4 ovarian
OVCAR-5 ovarian = system: OVCAR-5 ovarian
OVCAR-8 ovarian = system: OVCAR-8 ovarian
PC-3 prostate = system: PC-3 prostate
RPMI-8226 leukemia = system: RPMI-8226 leukemia
RXF 393 renal = system: RXF 393 renal
SF-268 CNS = system: SF-268 CNS
SF-295 CNS = system: SF-295 CNS
SF-539 CNS = system: SF-539 CNS
SK-MEL-2 melanoma = system: SK-MEL-2 melanoma
SK-MEL-28 melanoma = system: SK-MEL-28 melanoma
SK-MEL-5 melanoma = system: SK-MEL-5 melanoma
SK-OV-3 ovarian = system: SK-OV-3 ovarian
SN12C renal = system: SN12C renal
SNB-19 CNS = system: SNB-19 CNS
SNB-75 CNS = system: SNB-75 CNS
SR leukemia = system: SR leukemia
SW-620 colon = system: SW-620 colon
T-47D breast = system: T-47D breast
TK-10 renal = system: TK-10 renal
U251 CNS = system: U251 CNS
UACC-257 melanoma = system: UACC-257 melanoma
UACC-62 melanoma = system: UACC-62 melanoma
UO-31 renal = system: UO-31 renal

Q: With CNC(=O)CN1CCC(Oc2cc3c(Nc4cccc(Cl)c4F)ncnc3cc2OC)CC1 as the compound, how does the GI50 (786-0 renal) read?
A: 5.28 µM and 5.31 µM

Q: What about the TGI (786-0 renal) of the same compound?
A: 27.8 µM and > 10 µM

Q: And the GI50 (A498 renal)?
A: 1.1 µM and 1.33 µM

Q: What about the TGI (A498 renal) of the same compound?
A: 11.5 µM and > 10 µM

Q: And the GI50 (A549 NSCLC)?
A: 5.66 µM and > 4.69 µM

Q: What about the TGI (A549 NSCLC) of the same compound?
A: 22.9 µM and > 10 µM

Q: What about the GI50 (ACHN renal) of the same compound?
A: < 0.0224 µM and 0.0561 µM

Q: What about the TGI (ACHN renal) of the same compound?
A: 25.6 µM and > 10 µM

Q: And the GI50 (BT-549 breast)?
A: 16.2 µM and > 10 µM

Q: What about the TGI (BT-549 breast) of the same compound?
A: 38.9 µM and > 10 µM

Q: And the GI50 (CAKI-1 renal)?
A: 0.216 µM and 1.11 µM

Q: And the TGI (CAKI-1 renal)?
A: 10.4 µM and > 10 µM

Q: What about the GI50 (CCRF-CEM leukemia) of the same compound?
A: 24.6 µM and > 5.76 µM

Q: And the TGI (CCRF-CEM leukemia)?
A: 81 µM and > 10 µM

Q: What about the GI50 (COLO 205 colon) of the same compound?
A: 13.9 µM and > 4.66 µM

Q: And the TGI (COLO 205 colon)?
A: 29 µM and > 8.92 µM

Q: What about the GI50 (DU-145 prostate) of the same compound?
A: 3.64 µM and 2.19 µM

Q: And the TGI (DU-145 prostate)?
A: > 56 µM

Q: And the GI50 (EKVX NSCLC)?
A: < 0.0147 µM and 0.0154 µM

Q: And the GI50 (HCC-2998 colon)?
A: 15.9 µM and > 7.7 µM

Q: And the TGI (HCC-2998 colon)?
A: 34.6 µM and > 10 µM

Q: And the GI50 (HCT-116 colon)?
A: 14.8 µM and > 5.44 µM

Q: And the TGI (HCT-116 colon)?
A: 28.5 µM and > 10 µM

Q: And the GI50 (HCT-15 colon)?
A: 11.2 µM and > 5.17 µM

Q: And the TGI (HCT-15 colon)?
A: 67.6 µM and > 10 µM

Q: And the GI50 (HL-60(TB) leukemia)?
A: 26.9 µM and > 4.95 µM

Q: What about the TGI (HL-60(TB) leukemia) of the same compound?
A: > 65.4 µM

Q: And the GI50 (HOP-62 NSCLC)?
A: 7.91 µM and 3.95 µM

Q: And the TGI (HOP-62 NSCLC)?
A: 70.4 µM and > 10 µM

Q: And the GI50 (HOP-92 NSCLC)?
A: 1.9 µM and 1.29 µM

Q: What about the TGI (HOP-92 NSCLC) of the same compound?
A: 16.4 µM and > 9.33 µM

Q: And the GI50 (HS 578T breast)?
A: 3.35 µM and 2.96 µM

Q: And the TGI (HS 578T breast)?
A: 21.2 µM and > 10 µM

Q: And the GI50 (HT29 colon)?
A: 11.6 µM and > 7.06 µM

Q: What about the TGI (HT29 colon) of the same compound?
A: 32.6 µM and > 10 µM

Q: And the GI50 (IGROV1 ovarian)?
A: 0.303 µM and 0.084 µM

Q: What about the TGI (IGROV1 ovarian) of the same compound?
A: 5.37 µM and 4.3 µM

Q: And the GI50 (K-562 leukemia)?
A: 16.8 µM and > 10 µM

Q: And the TGI (K-562 leukemia)?
A: 45.6 µM and > 10 µM

Q: What about the GI50 (KM12 colon) of the same compound?
A: 17.3 µM and > 5.89 µM

Q: And the TGI (KM12 colon)?
A: 32.4 µM and > 10 µM

Q: And the GI50 (LOX IMVI melanoma)?
A: 8.12 µM and > 5.06 µM

Q: And the TGI (LOX IMVI melanoma)?
A: 20.9 µM and > 10 µM

Q: And the GI50 (M14 melanoma)?
A: 18 µM and > 8.27 µM

Q: What about the TGI (M14 melanoma) of the same compound?
A: 34.1 µM and > 10 µM

Q: And the GI50 (MALME-3M melanoma)?
A: 16.1 µM and > 10 µM

Q: And the TGI (MALME-3M melanoma)?
A: > 58 µM

Q: And the GI50 (MCF7 breast)?
A: 13.8 µM and > 5 µM

Q: What about the TGI (MCF7 breast) of the same compound?
A: > 74.5 µM

Q: What about the GI50 (MDA-MB-231 breast) of the same compound?
A: 5.9 µM and 4.18 µM

Q: What about the TGI (MDA-MB-231 breast) of the same compound?
A: 20.7 µM and > 10 µM

Q: What about the GI50 (MDA-MB-435) of the same compound?
A: 21.5 µM and > 8.41 µM

Q: What about the TGI (MDA-MB-435) of the same compound?
A: > 62.4 µM

Q: And the GI50 (MOLT-4 leukemia)?
A: 16 µM and > 6.28 µM

Q: What about the TGI (MOLT-4 leukemia) of the same compound?
A: > 74.5 µM

Q: And the GI50 (NCI-H226 lung)?
A: 13.9 µM and > 6.23 µM

Q: What about the TGI (NCI-H226 lung) of the same compound?
A: 42.1 µM and > 10 µM

Q: And the GI50 (NCI-H23 lung)?
A: 18.2 µM and > 7.11 µM

Q: And the TGI (NCI-H23 lung)?
A: > 58.5 µM

Q: And the GI50 (NCI-H460 lung)?
A: 28.1 µM and > 6.73 µM

Q: What about the TGI (NCI-H460 lung) of the same compound?
A: > 100 µM

Q: What about the GI50 (NCI-H522 lung) of the same compound?
A: 0.143 µM and 0.0614 µM

Q: And the TGI (NCI-H522 lung)?
A: 20.4 µM and > 10 µM

Q: What about the GI50 (NCI/ADR-RES ovarian) of the same compound?
A: 11.4 µM and > 6.36 µM

Q: And the TGI (NCI/ADR-RES ovarian)?
A: 66.4 µM and > 10 µM

Q: And the GI50 (OVCAR-3 ovarian)?
A: 3.83 µM and 2.34 µM

Q: What about the TGI (OVCAR-3 ovarian) of the same compound?
A: 18.8 µM and > 10 µM

Q: What about the GI50 (OVCAR-4 ovarian) of the same compound?
A: 20.1 µM and > 7.05 µM

Q: What about the TGI (OVCAR-4 ovarian) of the same compound?
A: 98.5 µM and > 10 µM

Q: And the GI50 (OVCAR-5 ovarian)?
A: 1.9 µM and 1.56 µM

Q: And the TGI (OVCAR-5 ovarian)?
A: 22.4 µM and > 10 µM

Q: And the GI50 (OVCAR-8 ovarian)?
A: 8.25 µM and > 5.04 µM

Q: And the TGI (OVCAR-8 ovarian)?
A: > 77.3 µM

Q: And the GI50 (PC-3 prostate)?
A: 17.5 µM and > 8.3 µM

Q: And the TGI (PC-3 prostate)?
A: > 69.1 µM

Q: What about the GI50 (RPMI-8226 leukemia) of the same compound?
A: 32.2 µM and > 10 µM

Q: What about the TGI (RPMI-8226 leukemia) of the same compound?
A: > 100 µM

Q: What about the GI50 (RXF 393 renal) of the same compound?
A: 7.35 µM and 2.37 µM

Q: And the TGI (RXF 393 renal)?
A: 27.3 µM and > 6.92 µM

Q: What about the GI50 (SF-268 CNS) of the same compound?
A: 8.25 µM and 4.25 µM

Q: And the TGI (SF-268 CNS)?
A: > 45.2 µM

Q: What about the GI50 (SF-295 CNS) of the same compound?
A: 12.5 µM and > 5.62 µM

Q: And the TGI (SF-295 CNS)?
A: 29.3 µM and > 10 µM

Q: What about the GI50 (SF-539 CNS) of the same compound?
A: 13.5 µM and > 5.94 µM

Q: What about the TGI (SF-539 CNS) of the same compound?
A: 33.4 µM and > 10 µM

Q: And the GI50 (SK-MEL-2 melanoma)?
A: 16.7 µM and > 7.55 µM

Q: And the TGI (SK-MEL-2 melanoma)?
A: 34.1 µM and > 10 µM

Q: And the GI50 (SK-MEL-28 melanoma)?
A: 19.2 µM and > 7.55 µM

Q: And the TGI (SK-MEL-28 melanoma)?
A: 47.3 µM and > 10 µM

Q: What about the GI50 (SK-MEL-5 melanoma) of the same compound?
A: 13.4 µM and 4.49 µM

Q: What about the TGI (SK-MEL-5 melanoma) of the same compound?
A: 26.5 µM and > 10 µM

Q: And the GI50 (SK-OV-3 ovarian)?
A: 0.167 µM and 0.153 µM

Q: What about the TGI (SK-OV-3 ovarian) of the same compound?
A: 5.73 µM and 1.82 µM

Q: What about the GI50 (SN12C renal) of the same compound?
A: 2.96 µM and 3.42 µM

Q: What about the TGI (SN12C renal) of the same compound?
A: > 100 µM

Q: What about the GI50 (SNB-19 CNS) of the same compound?
A: 31.5 µM and > 8.29 µM

Q: What about the TGI (SNB-19 CNS) of the same compound?
A: > 100 µM

Q: What about the GI50 (SNB-75 CNS) of the same compound?
A: 2.09 µM and 1.84 µM

Q: And the TGI (SNB-75 CNS)?
A: 10.8 µM and > 10 µM

Q: What about the GI50 (SR leukemia) of the same compound?
A: 21.1 µM and 2.19 µM

Q: And the TGI (SR leukemia)?
A: > 70.1 µM and 8.97 µM

Q: What about the GI50 (SW-620 colon) of the same compound?
A: 15.6 µM and > 6.56 µM

Q: And the TGI (SW-620 colon)?
A: 32.9 µM and > 10 µM

Q: What about the GI50 (T-47D breast) of the same compound?
A: 1.24 µM and 0.53 µM

Q: And the TGI (T-47D breast)?
A: 18.1 µM and > 7.9 µM

Q: And the GI50 (TK-10 renal)?
A: 0.0237 µM and 0.00744 µM

Q: And the TGI (TK-10 renal)?
A: 14.8 µM and > 10 µM

Q: And the GI50 (U251 CNS)?
A: 17 µM and > 6.47 µM

Q: And the TGI (U251 CNS)?
A: 45.9 µM and > 10 µM

Q: And the GI50 (UACC-257 melanoma)?
A: 13.7 µM and > 10 µM

Q: And the TGI (UACC-257 melanoma)?
A: 29.2 µM and > 10 µM

Q: What about the GI50 (UACC-62 melanoma) of the same compound?
A: 16.3 µM and > 10 µM

Q: And the TGI (UACC-62 melanoma)?
A: 32.6 µM and > 10 µM

Q: And the GI50 (UO-31 renal)?
A: 0.177 µM and 0.427 µM

Q: And the TGI (UO-31 renal)?
A: 15.2 µM and > 10 µM
